From ChEMBL document CHEMBL4052712, “Design and optimization of highly-selective, broad spectrum fungal CYP51 inhibitors” (Bioorg Med Chem Lett, 2017)

Key:
[1] = target: Lanosterol 14-alpha demethylase (Candida albicans (strain SC5314 / ATCC MYA-2876) (Yeast), UniProt P10613); assay: Inhibition of CYP51 in Candida albicans assessed as inhibition of microbe growth incubated for 48 hrs by CLSI M27-A3 guideline based method
Cytochrome P450 3A4 = Cytochrome P450 3A4 (Homo sapiens, UniProt P08684); assay: Inhibition of CYP3A4 in human hepatocyte microsomes using testosterone substrate by HPLC/MS/MS method; format: ADME
Sequence of Cytochrome P450 3A4 (P08684 whole entry): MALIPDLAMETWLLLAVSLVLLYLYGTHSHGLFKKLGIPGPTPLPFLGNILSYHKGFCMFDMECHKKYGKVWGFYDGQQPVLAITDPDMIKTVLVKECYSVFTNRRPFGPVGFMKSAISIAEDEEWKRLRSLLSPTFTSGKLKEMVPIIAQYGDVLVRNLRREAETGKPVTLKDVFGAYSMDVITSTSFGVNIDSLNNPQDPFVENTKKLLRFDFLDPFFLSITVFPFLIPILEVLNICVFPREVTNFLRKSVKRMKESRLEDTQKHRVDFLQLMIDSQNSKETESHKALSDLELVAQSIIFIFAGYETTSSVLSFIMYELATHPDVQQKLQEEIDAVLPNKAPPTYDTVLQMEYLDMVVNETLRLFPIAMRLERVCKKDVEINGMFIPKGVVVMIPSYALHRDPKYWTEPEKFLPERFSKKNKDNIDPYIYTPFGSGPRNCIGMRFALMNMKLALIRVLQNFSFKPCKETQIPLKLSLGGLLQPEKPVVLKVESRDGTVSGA

[2] = target: T1, Lanosterol 14-alpha demethylase (Aspergillus) (UniProt B8NUK6+Q9P8R0+G4WW85); assay: Inhibition of CYP51 in Aspergillus fumigatus assessed as inhibition of microbe growth incubated for 48 to 168 hrs by CLSI M27-A3 guideline based method
[3] = target: Lanosterol 14-alpha demethylase (Candida glabrata (strain ATCC 2001 / BCRC 20586 / JCM 3761 / NBRC 0622 /NRRL Y-65 / CBS 138) (Yeast) (Nakaseomyces glabratus)) (UniProt P50859); assay: Inhibition of CYP51 in Candida glabrata assessed as inhibition of microbe growth incubated for 48 hrs by CLSI M27-A3 guideline based method
Sequence of Lanosterol 14-alpha demethylase (Candida glabrata (strain ATCC 2001 / BCRC 20586 / JCM 3761 / NBRC 0622 /NRRL Y-65 / CBS 138) (Yeast) (Nakaseomyces glabratus)) (P50859 whole entry): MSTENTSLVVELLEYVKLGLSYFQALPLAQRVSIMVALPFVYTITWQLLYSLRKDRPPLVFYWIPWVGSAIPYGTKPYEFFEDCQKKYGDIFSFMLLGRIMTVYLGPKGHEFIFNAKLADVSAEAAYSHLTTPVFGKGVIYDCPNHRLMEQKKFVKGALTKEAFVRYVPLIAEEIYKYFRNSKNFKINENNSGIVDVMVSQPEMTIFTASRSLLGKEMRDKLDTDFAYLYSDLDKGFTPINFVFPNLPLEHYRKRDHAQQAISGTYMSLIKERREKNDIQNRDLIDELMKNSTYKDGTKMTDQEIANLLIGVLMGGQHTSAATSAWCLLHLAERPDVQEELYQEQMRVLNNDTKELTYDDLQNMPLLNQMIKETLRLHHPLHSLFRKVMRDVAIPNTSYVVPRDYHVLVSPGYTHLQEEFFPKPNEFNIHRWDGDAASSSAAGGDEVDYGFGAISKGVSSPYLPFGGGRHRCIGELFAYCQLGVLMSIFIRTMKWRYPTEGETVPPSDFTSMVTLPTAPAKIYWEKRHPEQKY

[4] = target: T1, Lanosterol 14-alpha demethylase (Aspergillus); assay: Inhibition of CYP51 in Aspergillus flavus assessed as inhibition of microbe growth incubated for 48 to 168 hrs by CLSI M27-A3 guideline based method
Cryptococcus neoformans = assay: Inhibition of CYP51 in Cryptococcus neoformans assessed as inhibition of microbe growth incubated for 48 hrs by CLSI M27-A3 guideline based method
[5] = target: T2, Lanosterol 14-alpha demethylase (Trichophyton rubrum (strain ATCC MYA-4607 / CBS 118892) (Athlete'sfoot fungus)) (UniProt F2SHH3); assay: Inhibition of CYP51 in Trichophyton rubrum assessed as inhibition of microbe growth incubated for 48 hrs by CLSI M27-A3 guideline based method
T2 sequence (whole entry): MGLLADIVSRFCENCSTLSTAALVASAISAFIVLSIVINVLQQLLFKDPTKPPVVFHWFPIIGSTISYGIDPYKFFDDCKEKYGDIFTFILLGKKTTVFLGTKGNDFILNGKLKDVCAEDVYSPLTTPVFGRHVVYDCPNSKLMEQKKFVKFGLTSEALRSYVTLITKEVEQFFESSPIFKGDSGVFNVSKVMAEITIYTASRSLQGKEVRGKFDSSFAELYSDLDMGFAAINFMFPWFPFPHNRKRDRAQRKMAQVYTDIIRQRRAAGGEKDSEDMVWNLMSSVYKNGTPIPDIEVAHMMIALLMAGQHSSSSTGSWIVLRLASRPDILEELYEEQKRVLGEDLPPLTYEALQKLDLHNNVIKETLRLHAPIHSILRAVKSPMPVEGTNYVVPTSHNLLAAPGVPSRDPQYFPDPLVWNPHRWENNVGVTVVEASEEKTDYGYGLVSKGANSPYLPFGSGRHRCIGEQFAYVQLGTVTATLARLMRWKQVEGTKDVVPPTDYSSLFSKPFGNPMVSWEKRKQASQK

[6] = target: T3, Cytochrome P450 11B1, mitochondrial (Homo sapiens, UniProt P15538); assay: Inhibition of CYP11B1 in human hepatocyte microsomes using deoxycortisol substrate by HPLC/MS/MS method; format: ADME
T3 sequence (P15538 whole entry): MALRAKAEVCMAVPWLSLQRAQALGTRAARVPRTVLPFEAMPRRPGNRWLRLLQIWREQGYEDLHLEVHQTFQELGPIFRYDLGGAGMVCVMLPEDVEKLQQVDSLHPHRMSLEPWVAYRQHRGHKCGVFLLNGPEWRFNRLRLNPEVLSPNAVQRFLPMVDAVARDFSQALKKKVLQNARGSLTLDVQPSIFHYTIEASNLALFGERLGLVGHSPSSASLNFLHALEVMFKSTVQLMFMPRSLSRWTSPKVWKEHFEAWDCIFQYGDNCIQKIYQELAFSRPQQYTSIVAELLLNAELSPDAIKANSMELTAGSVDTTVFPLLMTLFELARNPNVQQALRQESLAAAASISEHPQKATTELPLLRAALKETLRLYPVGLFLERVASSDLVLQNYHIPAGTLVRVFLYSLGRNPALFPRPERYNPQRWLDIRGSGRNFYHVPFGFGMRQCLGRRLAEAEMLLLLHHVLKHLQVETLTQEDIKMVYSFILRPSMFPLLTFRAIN

[7] = target: T4, Steroid 17-alpha-hydroxylase/17,20 lyase (Homo sapiens, UniProt P05093); assay: Inhibition of CYP17 lyase in human hepatocyte microsomes using 17a-hydroxypregnenolone substrate by HPLC/MS/MS method; format: ADME
T4 sequence (P05093 whole entry): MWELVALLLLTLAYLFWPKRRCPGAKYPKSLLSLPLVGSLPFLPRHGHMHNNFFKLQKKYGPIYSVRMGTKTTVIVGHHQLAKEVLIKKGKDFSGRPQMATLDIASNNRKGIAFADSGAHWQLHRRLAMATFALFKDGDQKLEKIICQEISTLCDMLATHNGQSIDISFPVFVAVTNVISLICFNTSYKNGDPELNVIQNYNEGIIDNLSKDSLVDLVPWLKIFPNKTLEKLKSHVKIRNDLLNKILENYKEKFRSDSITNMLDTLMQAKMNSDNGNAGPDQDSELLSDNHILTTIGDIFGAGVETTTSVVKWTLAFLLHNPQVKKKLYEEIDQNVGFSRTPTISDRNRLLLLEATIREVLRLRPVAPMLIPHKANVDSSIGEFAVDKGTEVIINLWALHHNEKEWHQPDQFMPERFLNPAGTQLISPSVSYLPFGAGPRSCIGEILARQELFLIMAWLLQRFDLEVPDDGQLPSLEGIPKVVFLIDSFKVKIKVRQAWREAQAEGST

[8] = target: T5, Cytochrome P450 11B2, mitochondrial (Homo sapiens, UniProt P19099); assay: Inhibition of CYP11B2 in human hepatocyte microsomes using deoxycorticosteroid substrate by HPLC/MS/MS method; format: ADME
T5 sequence (P19099 whole entry): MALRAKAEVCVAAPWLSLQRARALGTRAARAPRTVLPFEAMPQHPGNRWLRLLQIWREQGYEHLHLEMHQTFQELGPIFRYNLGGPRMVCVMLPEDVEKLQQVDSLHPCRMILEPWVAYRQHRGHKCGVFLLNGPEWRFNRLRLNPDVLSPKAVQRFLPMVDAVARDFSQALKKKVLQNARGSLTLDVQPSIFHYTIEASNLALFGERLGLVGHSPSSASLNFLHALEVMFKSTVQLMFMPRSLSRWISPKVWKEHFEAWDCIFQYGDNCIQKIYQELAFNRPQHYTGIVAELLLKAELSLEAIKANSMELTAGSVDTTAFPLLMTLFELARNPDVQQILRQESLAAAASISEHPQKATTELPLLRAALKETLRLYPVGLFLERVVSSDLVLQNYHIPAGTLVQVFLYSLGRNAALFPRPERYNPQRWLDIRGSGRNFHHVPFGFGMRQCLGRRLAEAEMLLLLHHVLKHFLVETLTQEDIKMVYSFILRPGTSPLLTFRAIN

Aromatase = target: T6, Aromatase (Homo sapiens, UniProt P11511); assay: Inhibition of CYP19 in human hepatocyte microsomes using testosterone substrate by HPLC/MS/MS method; format: ADME
T6 sequence (P11511 whole entry): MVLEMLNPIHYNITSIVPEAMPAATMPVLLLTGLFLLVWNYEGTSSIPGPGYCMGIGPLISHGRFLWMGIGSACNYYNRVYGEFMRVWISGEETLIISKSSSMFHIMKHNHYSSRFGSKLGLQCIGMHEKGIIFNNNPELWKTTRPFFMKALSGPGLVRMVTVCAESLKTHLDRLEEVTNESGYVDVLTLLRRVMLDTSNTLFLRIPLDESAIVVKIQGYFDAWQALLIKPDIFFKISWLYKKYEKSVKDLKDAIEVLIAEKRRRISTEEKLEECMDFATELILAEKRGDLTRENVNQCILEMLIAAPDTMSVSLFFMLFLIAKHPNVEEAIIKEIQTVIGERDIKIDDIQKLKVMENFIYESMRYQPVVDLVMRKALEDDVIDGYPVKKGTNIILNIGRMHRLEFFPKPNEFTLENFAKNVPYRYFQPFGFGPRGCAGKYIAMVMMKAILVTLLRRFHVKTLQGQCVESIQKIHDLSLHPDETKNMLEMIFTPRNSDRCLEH

[9] = target: T4, Steroid 17-alpha-hydroxylase/17,20 lyase; assay: Inhibition of CYP17 hydroxylase in human hepatocyte microsomes using pregnenolone substrate by HPLC/MS/MS method; format: ADME

Sequence of Lanosterol 14-alpha demethylase (P10613 whole entry): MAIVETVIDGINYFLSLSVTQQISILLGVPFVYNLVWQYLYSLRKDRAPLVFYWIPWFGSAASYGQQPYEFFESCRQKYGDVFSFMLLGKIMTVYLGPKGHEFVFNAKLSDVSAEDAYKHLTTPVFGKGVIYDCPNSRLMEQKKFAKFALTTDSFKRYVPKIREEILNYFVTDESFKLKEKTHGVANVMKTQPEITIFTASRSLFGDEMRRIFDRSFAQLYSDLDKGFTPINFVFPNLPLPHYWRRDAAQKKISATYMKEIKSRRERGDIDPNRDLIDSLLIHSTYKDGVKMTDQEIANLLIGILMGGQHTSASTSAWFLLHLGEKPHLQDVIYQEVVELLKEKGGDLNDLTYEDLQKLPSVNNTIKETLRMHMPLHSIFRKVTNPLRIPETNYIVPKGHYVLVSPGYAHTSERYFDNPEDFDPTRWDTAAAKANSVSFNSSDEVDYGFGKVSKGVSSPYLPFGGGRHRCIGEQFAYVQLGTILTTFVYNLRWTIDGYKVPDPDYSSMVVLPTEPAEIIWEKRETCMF

## OC(Cn1cnnn1)(c1ccc(F)cc1F)C(F)(F)c1ccc(C#Cc2ccc(OCc3ccc(F)cc3)cc2)cn1 (centres undefined)
[1]
  MIC50: 0.0625 µg/mL
Cytochrome P450 3A4
  IC50: > 200 µM
[2]
  MIC100: 32 µg/mL

## N#Cc1cccc(COc2ccc(C#Cc3ccc(C(F)(F)C(O)(Cn4cnnn4)c4ccc(F)cc4F)nc3)cc2)c1 (centres undefined)
[1]
  MIC50: 0.016 µg/mL
Cytochrome P450 3A4
  IC50: > 200 µM
[2]
  MIC100: > 64 µg/mL

## CNC(=O)c1ccc(COc2ccc(C#Cc3ccc(C(F)(F)C(O)(Cn4cnnn4)c4ccc(F)cc4F)nc3)cc2)cc1 (centres undefined)
[1]
  MIC50: 0.031 µg/mL
Cytochrome P450 3A4
  IC50: 122 µM
[2]
  MIC100: > 64 µg/mL

## N#Cc1ccc(COc2ccc(C#Cc3ccc(C(F)(F)C(O)(Cn4cnnn4)c4cc(F)ccc4F)nc3)cc2)cc1 (centres undefined)
[1]
  MIC50: 0.016 µg/mL
Cytochrome P450 3A4
  IC50: > 200 µM
[2]
  MIC100: > 64 µg/mL

## N#Cc1ccc(COc2ccc(C#Cc3ccc(C(F)(F)C(O)(Cn4cnnn4)c4ccc(Cl)cc4F)nc3)cc2)cc1 (centres undefined)
[1]
  MIC50: 0.031 µg/mL
Cytochrome P450 3A4
  IC50: > 200 µM
[2]
  MIC100: > 64 µg/mL

## N#Cc1ccc(OCc2ccc(C#Cc3ccc(C(F)(F)C(O)(Cn4cnnn4)c4ccc(F)cc4F)nc3)cc2)cc1 (centres undefined)
[1]
  MIC50: 0.031 µg/mL
Cytochrome P450 3A4
  IC50: > 200 µM
[2]
  MIC100: > 64 µg/mL

## OC(Cn1cnnn1)(c1ccc(F)cc1F)C(F)(F)c1ccc(C#Cc2ccc(OCc3ccc(C(F)(F)F)cc3)cc2)cn1 (centres undefined)
[1]
  MIC50: 0.125 µg/mL
Cytochrome P450 3A4
  IC50: > 200 µM
[2]
  MIC100: > 64 µg/mL

## N#Cc1ccc(COc2ccc(C#Cc3ccc(C(F)(F)C(O)(Cn4cnnn4)c4ccc(F)cc4F)nc3)cc2)c(F)c1 (centres undefined)
[1]
  MIC50: 0.16 µg/mL
Cytochrome P450 3A4
  IC50: > 200 µM
[2]
  MIC100: > 64 µg/mL

## N#Cc1ccc(COc2ccc(C#Cc3ccc(C(F)(F)C(O)(Cn4cnnn4)c4ccc(F)cc4F)nc3)cc2)cc1 (single isomer, unassigned; (+))
[3]
  MIC50: 0.12 µg/mL
[4]
  MIC100: 0.5 µg/mL
Cryptococcus neoformans
  MIC50: 0.0019 µg/mL
[5]
  MIC50: 0.25 µg/mL
[2]
  MIC100: 0.25 µg/mL

## OC(Cn1cncn1)(Cn1cncn1)c1ccc(F)cc1F [FLUCONAZOLE]
[6]
  IC50: 30 µM
[7]
  IC50: > 200 µM
[1]
  MIC50: 0.5 µg/mL
[3]
  MIC50: 8 µg/mL
[8]
  IC50: 13 µM
[4]
  MIC100: > 64 µg/mL
Cryptococcus neoformans
  MIC50: 0.25 µg/mL
Aromatase
  IC50: 22 µM
[9]
  IC50: > 200 µM
[5]
  MIC50: 16 µg/mL
[2]
  MIC100: > 64 µg/mL

## O[C@@](Cn1cnnn1)(c1ccc(F)cc1F)C(F)(F)c1ccc(-c2ccc(OCC(F)(F)F)cc2)cn1 [OTESECONAZOLE]
[1]
  MIC50: < 0.001 µg/mL
Cytochrome P450 3A4
  IC50: 65 µM
[2]
  MIC100: > 64 µg/mL

## CC[C@@H]([C@H](C)O)n1ncn(-c2ccc(N3CCN(c4ccc(OC[C@@H]5CO[C@@](Cn6cncn6)(c6ccc(F)cc6F)C5)cc4)CC3)cc2)c1=O [POSACONAZOLE]
[6]
  IC50: 0.31 µM
[7]
  IC50: 0.042 µM
[1]
  MIC50: 0.015 µg/mL
[3]
  MIC50: 0.12 µg/mL
[8]
  IC50: 0.021 µM
[4]
  MIC100: 0.25 µg/mL
Cryptococcus neoformans
  MIC50: 0.0078 µg/mL
Aromatase
  IC50: 8.4 µM
[9]
  IC50: 1.8 µM
[5]
  MIC50: 0.25 µg/mL
[2]
  MIC100: 0.062 µg/mL
